# Measurements reported in publication PMC10145973, “Genomic Insights into Bacterial Resistance to Proline-Rich Antimicrobial Peptide Bac7” (Membranes, 2023).
# Several values for one entry are separate records, joined by “and”; a condition that tells them apart may be missing. Equal values may be shown once. Read-outs that look alike come from different tables or passages of the source. Marks after values point to notes of the source that are not given here. Where a SMILES comes first, the peptide text is derived from it. Bridges are numbered along the chain shown (N, C = ends). [ ]: non-standard residue; d: D form. The star is where a group is joined. X1 = CC[C@H](C)CCCCC(=O)*; Dab = NCC[C@H](N)C(=O)O
# Key:
# M. tuberculosis H37Rv = details: cited from earlier work
# E. coli MDR 1057 B3 = details: 24 h, 37 °C; for Minimum Inhibitory Concentration, B3: Table 2, broth microdilution in MHB (medium ±0.9% NaCl not given), 0.1% BSA, median of at least three independent experiments in triplicate
# E. coli MDR 1057 P1 = details: Table 2, broth microdilution in MHB (medium ±0.9% NaCl not given), 0.1% BSA, 24 h, 37 °C, median of at least three independent experiments in triplicate
# [1] = system: Mycobacterium smegmatis mc(2)155; experiment: MIC against Mycobacterium smegmatis (unpublished data); assay type: cell-based; details: authors' unpublished data
# E. coli MDR 1057 B2 = details: 24 h, 37 °C; for Minimum Inhibitory Concentration, B2: Table 2, broth microdilution in MHB (medium ±0.9% NaCl not given), 0.1% BSA, median of at least three independent experiments in triplicate
# Mycobacterium phlei = system: Mycobacterium phlei; design: method as in PMID 35629841; details: cited from earlier work
# E. coli MDR 1057 WT = details: 24 h, 37 °C; for Minimum Inhibitory Concentration, WT: Table 2, broth microdilution in MHB (medium ±0.9% NaCl not given), 10^6 CFU/mL suspension, agents diluted in 0.1% BSA, visible turbidity, median of at least three independent experiments in triplicate
# [2] = system: extensively drug-resistant Klebsiella pneumoniae isolate; design: method as in PMID 30445429; details: serially passaged in the presence of the agent; cited from earlier work
# [3] = system: resistant Salmonella enterica strain (pmrB mutations); details: listed as PmxB; cited from earlier work
# E. coli MDR 1057 B1 = details: Fig. 3C, 24 h, 37 °C
# [4] = system: E. coli BW25113 ΔsbmA (sbmA::kan, JW0368); experiment: MIC, broth microdilution, sbmA knockout; assay type: cell-based, Escherichia coli; details: Fig. 3C, 24 h, 37 °C
# [5] = system: E. coli BW25113 ΔwaaP (pBAD-WaaP^N159H); details: complementation in BW25113 ΔwaaP, 0.1 g/L arabinose
# E. coli BW25113 WT = experiment: MIC, broth microdilution, BW25113; assay type: cell-based, Escherichia coli; details: 24 h, 37 °C
# [6] = system: E. coli BW25113 ΔwaaP (waaP::kan, JW3605); experiment: MIC, broth microdilution, waaP knockout; assay type: cell-based, Escherichia coli; details: 24 h, 37 °C
# [7] = system: septic shock-modelled rats; design: method as in PMID 12785015; details: comparable with polymyxin B; cited from earlier work
# [8] = selection in MHB without 0.9% NaCl
# [9] = Fig. 3C and text, MHB +0.9% NaCl
compound,measurement,setting,value
PR-39,concentration inhibiting growth,M. tuberculosis H37Rv,about 10 µM
CC[C@H](C)[C@H](NC(=O)[C@H](CCCNC(=N)N)NC(=O)[C@@H](N)CCCNC(=N)N)C(=O)N[C@@H](CCCNC(=N)N)C(=O)N[C@@H](CCCNC(=N)N)C(=O)N1CCC[C@H]1C(=O)N[C@@H](CCCNC(=N)N)C(=O)N[C@@H](CC(C)C)C(=O)N1CCC[C@H]1C(=O)N[C@@H](CCCNC(=N)N)C(=O)N1CCC[C@H]1C(=O)N[C@@H](CCCNC(=N)N)C(=O)N[C@H](C(=O)N1CCC[C@H]1C(=O)N[C@@H](CCCNC(=N)N)C(=O)N1CCC[C@H]1C(=O)N[C@@H](CCCNC(=N)N)C(=O)N[C@H](C(=O)N1CCC[C@H]1C(=O)N1CCC[C@H]1C(=O)N[C@@H](CCCNC(=N)N)C(=O)N[C@H](C(=O)N1CCC[C@H]1C(=O)N[C@@H](CCCNC(=N)N)C(=O)N1CCC[C@H]1C(=O)N[C@H](C(=O)N[C@@H](CC(C)C)C(=O)N1CCC[C@H]1C(=O)N1CCC[C@H]1C(=O)N1CCC[C@H]1C(=O)N[C@@H](CCCNC(=N)N)C(=O)N[C@H](C(=O)N1CCC[C@H]1C(=O)N[C@@H](Cc1ccccc1)C(=O)N1CCC[C@H]1C(=O)N[C@@H](CCCNC(=N)N)C(=O)N[C@@H](Cc1ccccc1)C(=O)N1CCC[C@H]1C(=O)N[C@@H](CCCNC(=N)N)C(N)=O)C(C)C)C(C)C)[C@@H](C)CC)[C@@H](C)CC)C(C)C [VicBac] (H-RRIRRPRLPRPRVPRPRIPPRIPRPVLPPPRVPFPRFPR-NH2; N-terminus assumed),"Minimum Inhibitory Concentration, B3",E. coli MDR 1057 B3,2 µM
same,"Minimum Inhibitory Concentration, P1",E. coli MDR 1057 P1,4 µM
same,MIC,[1],0.5 to 1 µM
same,"Minimum Inhibitory Concentration, B2",E. coli MDR 1057 B2,2 µM
same,MIC,Mycobacterium phlei,0.5 to 1 µM
same,"Minimum Inhibitory Concentration, WT",E. coli MDR 1057 WT,1 µM
CC[C@H](C)CCCCC(=O)N[C@@H](CCN)C(=O)N[C@H](C(=O)N[C@@H](CCN)C(=O)N[C@H]1CCNC(=O)[C@H]([C@@H](C)O)NC(=O)[C@H](CCN)NC(=O)[C@H](CCN)NC(=O)[C@H](CC(C)C)NC(=O)[C@@H](Cc2ccccc2)NC(=O)[C@H](CCN)NC1=O)[C@@H](C)O [Polymyxin B] (X1-[Dab]T[Dab][Dab][Dab][dF]L[Dab][Dab]T; lactam 4-C (inferred); N-terminus assumed),"Minimum Inhibitory Concentration, B3",E. coli MDR 1057 B3,8 µM
same,increase in MIC after serial passage,[2],≥ 1000 fold
same,MIC after a single pmrB mutation,[3],up to 3 µg/mL and ≤ 4 µM
same,"Minimum Inhibitory Concentration, P1",E. coli MDR 1057 P1; listed as PmxB,> 128 µM
same,"final MIC relative to initial MIC, the P2 strain",E. coli MDR 1057 strain; PmxB selection,32 × MIC
same,"final MIC relative to initial MIC, the P1 strain","E. coli MDR 1057 strain; PmxB selection, MHB + 0.9% NaCl, 25 passages",2048 × MIC
same,"final MIC value, the P1 strain","E. coli MDR 1057 strain; PmxB selection, MHB + 0.9% NaCl, 25 passages, then three passages on drug-free agar",128 µM
same,"final MIC value, the P2 strain","E. coli MDR 1057 strain; PmxB selection, after final passage and three passages on drug-free agar",2 µM
same,MIC at start of the selection experiment,"E. coli MDR 1057 strain; both repetitions (P1 and P2), before selection",0.0625 µM
same,"Minimum Inhibitory Concentration, B2",E. coli MDR 1057 B2,0.125 µM
same,"Minimum Inhibitory Concentration, WT",E. coli MDR 1057 WT,0.125 µM
CC[C@H](C)[C@H](NC(=O)[C@H](CCCNC(=N)N)NC(=O)[C@@H](N)CCCNC(=N)N)C(=O)N[C@@H](CCCNC(=N)N)C(=O)N1CCC[C@H]1C(=O)N[C@@H](CCCNC(=N)N)C(=O)N1CCC[C@H]1C(=O)N1CCC[C@H]1C(=O)N[C@@H](CCCNC(=N)N)C(=O)N[C@@H](CC(C)C)C(=O)N1CCC[C@H]1C(=O)N[C@@H](CCCNC(=N)N)C(=O)N1CCC[C@H]1C(=O)N[C@@H](CCCNC(=N)N)C(=O)N1CCC[C@H]1C(=O)N[C@@H](CCCNC(=N)N)C(=O)N1CCC[C@H]1C(=O)N[C@@H](CC(C)C)C(=O)N1CCC[C@H]1C(=O)N[C@@H](Cc1ccccc1)C(=O)N1CCC[C@H]1C(=O)N[C@@H](CCCNC(=N)N)C(=O)O [Bac7_1-22] (H-RRIRPRPPRLPRPRPRPLPFPR-OH),"MIC, MHB +0.9% NaCl",E. coli MDR 1057 B1; MHB +0.9% NaCl,32 µM
same,"MIC, MHB",E. coli MDR 1057 B1; salt-free MHB,1 µM
same,"MIC, MHB +0.9% NaCl","E. coli MDR 1057 B3; Fig. 3C and text, MDR 1057 B3, MHB +0.9% NaCl",32−64 μM
same,"MIC, MHB","E. coli MDR 1057 B3; Fig. 3C and text, MDR 1057 B3, salt-free MHB",32 µM
same,"Minimum Inhibitory Concentration, B3",E. coli MDR 1057 B3,>32 µM
same,"MIC, MHB +0.9% NaCl",[4]; MHB +0.9% NaCl,16 µM
same,"MIC, MHB",[4]; salt-free MHB,1 µM
same,"Minimum Inhibitory Concentration, P1",E. coli MDR 1057 P1,16 * µM
same,increase in MICs for the strain expressing waaP^N159H as compared with the wild-type variant,[5],4–8 fold
same,increases in MIC values after initial 3-4 passages,"E. coli MDR 1057 strain; selection in MHB + 0.9% NaCl, strains B1 and B2",≥ 32 fold
same,"increase in MICs after 4 weeks of selection, strain B3",E. coli MDR 1057 strain; [8],32 fold
same,"increase in MICs after 4 weeks of selection, strain B4",E. coli MDR 1057 strain; [8],4 fold
same,"increase in minimal inhibitory concentrations (MICs), three resistant strains","E. coli MDR 1057 strain; serial passaging, four-week experimental evolution (abstract)",≥ 16 fold
same,"MIC, MHB +0.9% NaCl","E. coli MDR 1057 B2; Fig. 3C, MDR 1057 B2, MHB +0.9% NaCl",32 µM
same,"MIC, MHB","E. coli MDR 1057 B2; Fig. 3C, MDR 1057 B2, salt-free MHB",1 µM
same,"Minimum Inhibitory Concentration, B2",E. coli MDR 1057 B2,>32 µM
same,"MIC, MHB +0.9% NaCl",E. coli BW25113 WT; [9],1 µM
same,"MIC, MHB","E. coli BW25113 WT; Fig. 3C, salt-free MHB",2 µM
same,"MIC, MHB +0.9% NaCl",[6]; [9],1 µM
same,"MIC, MHB","[6]; Fig. 3C, salt-free MHB",2 µM
same,"MIC, MHB +0.9% NaCl","E. coli MDR 1057 WT; Fig. 3C, MDR 1057 WT, MHB +0.9% NaCl, median of ≥3 experiments",2 µM
same,"MIC, MHB","E. coli MDR 1057 WT; Fig. 3C, MDR 1057 WT, salt-free MHB, median of ≥3 experiments",1−2 μM
"Bac7_1-35: Bac7 fragment 1-35 (RRIRPRPPRLPRPRPRPLPFPRPGPRPIPRPLPFP; Bactenecin-7; UniProt P19661 131-165, looked up, fragment)",plasma LPS levels and lethality rates,[7],significant decrease
